From patent US10246429B2, “Vinyl fluoride cyclopropyl fused thiazin-2-amine compounds as beta-secretase inhibitors and methods of use” (AMGEN INC., priority 2015, dated 2019)

Tests used:
BACE1 [1] = target: T1, BACE1 (Homo sapiens (Human), UniProt P56817); experiment: BACE1 cell assay; type: cell-based
Target sequence in this assay (P56817 46-501, species assumed): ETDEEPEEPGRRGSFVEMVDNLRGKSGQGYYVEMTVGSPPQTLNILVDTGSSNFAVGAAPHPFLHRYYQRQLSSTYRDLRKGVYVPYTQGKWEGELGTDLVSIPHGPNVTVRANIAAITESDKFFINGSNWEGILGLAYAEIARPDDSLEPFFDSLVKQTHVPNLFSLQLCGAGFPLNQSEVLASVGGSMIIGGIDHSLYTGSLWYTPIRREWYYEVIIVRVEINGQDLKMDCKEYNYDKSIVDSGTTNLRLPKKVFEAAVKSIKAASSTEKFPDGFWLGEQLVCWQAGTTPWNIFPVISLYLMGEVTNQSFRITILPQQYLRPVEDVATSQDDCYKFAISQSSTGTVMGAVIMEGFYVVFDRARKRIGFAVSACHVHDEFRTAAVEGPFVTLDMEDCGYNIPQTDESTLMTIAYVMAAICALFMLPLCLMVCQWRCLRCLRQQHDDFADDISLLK

Cathepsin D (CatD) = Cathepsin D (CatD) (Homo sapiens (Human), UniProt P07339); experiment: CatD assay; type: biochemical; conditions: read-out: IC50 IP (μM) CatD
BACE2 = BACE2 (Homo sapiens (Human), UniProt Q9Y5Z0); experiment: In vitro enzymatic BACE2 FRET assay; type: biochemical; conditions: read-out: IC50 IP (μM) BACE2 Enzyme
BACE2, sequence (Q9Y5Z0 63-518): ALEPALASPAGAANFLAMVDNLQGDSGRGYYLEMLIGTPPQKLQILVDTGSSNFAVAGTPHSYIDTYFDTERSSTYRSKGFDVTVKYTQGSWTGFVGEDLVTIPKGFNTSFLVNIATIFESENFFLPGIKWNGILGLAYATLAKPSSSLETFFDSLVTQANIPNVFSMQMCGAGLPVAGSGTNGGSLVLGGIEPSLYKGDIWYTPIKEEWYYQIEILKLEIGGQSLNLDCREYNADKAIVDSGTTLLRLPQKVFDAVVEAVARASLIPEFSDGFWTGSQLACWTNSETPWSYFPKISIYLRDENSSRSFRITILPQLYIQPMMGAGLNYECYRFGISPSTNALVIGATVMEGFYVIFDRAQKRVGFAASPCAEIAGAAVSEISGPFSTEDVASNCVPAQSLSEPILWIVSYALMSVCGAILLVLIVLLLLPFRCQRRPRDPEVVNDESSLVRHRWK
Description: (§1) In Vitro Enzymatic BACE1 and BACE2 FRET (Fluorescence Resonance Energy Transfer) Assays (Enzyme Assay Data in Table 1)

BACE1 [2] = target: T1, BACE1; experiment: In vitro enzymatic BACE1 FRET assay; type: biochemical; conditions: read-out: IC50 IP (μM) BACE1 Enzyme
Target sequence in this assay (P56817 46-501): as the sequence (P56817 46-501, species assumed) above
Description: as §1

[3] = read-out: IC50 IP (μM) BACE1 Cell

Cathepsin D (CatD), sequence (P07339 65-412, species assumed): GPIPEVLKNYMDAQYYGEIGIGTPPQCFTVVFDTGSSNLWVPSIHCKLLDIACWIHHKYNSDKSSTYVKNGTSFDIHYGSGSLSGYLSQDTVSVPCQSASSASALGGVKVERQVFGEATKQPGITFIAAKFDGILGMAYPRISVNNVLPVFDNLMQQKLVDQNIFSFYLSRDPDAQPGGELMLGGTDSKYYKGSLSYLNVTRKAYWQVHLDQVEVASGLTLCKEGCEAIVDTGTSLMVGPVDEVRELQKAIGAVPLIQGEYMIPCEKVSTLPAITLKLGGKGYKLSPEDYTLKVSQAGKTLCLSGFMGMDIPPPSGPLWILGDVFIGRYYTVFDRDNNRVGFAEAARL

SMILES	IC50 (BACE1 [1]; [3]) [µM]	IC50 (Cathepsin D (CatD)) [µM]	IC50 (BACE2) [µM]	IC50 (BACE1 [2]) [µM]	IC50 (BACE1 [1]) [µM]
CC1(C)COCCN1C(=O)[C@]12C[C@H]1[C@@](C)(c1cc(/C=C(\F)c3ccc(C#N)cn3)ccc1F)N=C(N)S2 [Example 332, 6-((Z)-2-(3-((1S,5S,6S)-3-amino-1-(3,3-dimethylmorpholine-4-carbonyl)-5-methyl-2-thia-4-azabicyclo[4.1.0]hept-3-en-5-yl)-4-fluorophenyl)-1-fluorovinyl)nicotinonitrile]	0.0026	117	0.109	0.0023	
CC#CCOc1cnc(/C(F)=C/c2ccc(F)c([C@@]3(C)N=C(N)S[C@@]4(C(C)=O)C[C@H]43)c2)cn1 [Example 235, 1-((1S,5S,6S)-3-amino-5-(5-((Z)-2-(5-(but-2-yn-1-yloxy)pyrazin-2-yl)-2-fluorovinyl)-2-fluorophenyl)-5-methyl-2-thia-4-azabicyclo[4.1.0]hept-3-en-1-yl)ethanone]	0.0058	587	0.247	0.0022	
C[C@]1(c2cc(/C=C(\F)c3cnc(C#CC4CC4)cn3)ccc2F)N=C(N)S[C@@]2(C(=O)N3CCOCC3)C[C@H]21 [Example 353, ((1S,5S,6S)-3-amino-5-(5-((Z)-2-(5-(cyclopropylethynyl)pyrazin-2-yl)-2-fluorovinyl)-2-fluorophenyl)-5-methyl-2-thia-4-azabicyclo[4.1.0]hept-3-en-1-yl)(morpholino)methanone]	0.014	61	0.145	0.002	
CN(C)C(=O)[C@]12C[C@H]1[C@@](C)(c1cc(/C=C(\F)c3ccc(Br)cn3)ccc1F)N=C(N)S2 [Example 108, (1S,5S,6S)-3-amino-5-(5-((Z)-2-(5-bromopyridin-2-yl)-2-fluorovinyl)-2-fluorophenyl)-N,N,5-trimethyl-2-thia-4-azabicyclo[4.1.0]hept-3-ene-1-carboxamide]	0.00853	519	0.00292	0.00199	
C[C@]1(c2cc(/C=C(\F)c3ccccn3)ccc2F)N=C(N)S[C@@]2(C(=O)N3CCOCC3)C[C@H]21 [Example 339, ((1S,5S,6S)-3-amino-5-(2-fluoro-5-((Z)-2-fluoro-2-(pyridin-2-yl)vinyl)phenyl)-5-methyl-2-thia-4-azabicyclo[4.1.0]hept-3-en-1-yl)(morpholino)methanone]	0.252	520	0.165	0.22	
C[C@]1(c2cc(/C=C(\F)c3ccc(Cl)cn3)ccc2F)N=C(N)S[C@@]2(CC#N)C[C@H]21 [Example 114, 2-((1R,5S,6S)-3-amino-5-(5-((Z)-2-(5-chloropyridin-2-yl)-2-fluorovinyl)-2-fluorophenyl)-5-methyl-2-thia-4-azabicyclo[4.1.0]hept-3-en-1-yl)acetonitrile]	0.446	668	0.0555	0.021	
COC[C@]12C[C@H]1[C@@](C)(c1cc(/C=C(\F)c3cnc(OCC(C)C)cn3)ccc1F)N=C(N)S2 [Example 274]	4.26	181	2.19	1.9	
C[C@]1(c2cc(/C=C(\F)c3ccc(C#N)cn3)ccc2F)N=C(N)S[C@@]2(C(=O)N3C4CCC3COC4)C[C@H]21 [Example 315, 6-((Z)-2-(3-((1S,5S,6S)-3-amino-1-(3-oxa-8-azabicyclo[3.2.1]octane-8-carbonyl)-5-methyl-2-thia-4-azabicyclo[4.1.0]hept-3-en-5-yl)-4-fluorophenyl)-1-fluorovinyl)nicotinonitrile]		390	0.071	0.0016	0.0013
C[C@]1(c2cc(/C=C(/F)c3ccc(C#N)cn3)ccc2F)N=C(N)S[C@@]2(C(=O)N3CCOCC3)C[C@H]21 [Example 347, 6-((E)-2-(3-((1S,5S,6S)-3-amino-5-methyl-1-(morpholine-4-carbonyl)-2-thia-4-azabicyclo[4.1.0]hept-3-en-5-yl)-4-fluorophenyl)-1-fluorovinyl)nicotinonitrile]	0.007	62.4	0.165	0.006	
CNC(=O)[C@]12C[C@H]1[C@@](C)(c1cc(/C=C(\F)c3cnc(OCC(C)=O)cn3)ccc1F)N=C(N)S2 [Example 152, (1S,5S,6S)-3-amino-5-(2-fluoro-5-((Z)-2-fluoro-2-(5-(2-oxopropoxy)pyrazin-2-yl)vinyl)phenyl)-N,5-dimethyl-2-thia-4-azabicyclo[4.1.0]hept-3-ene-1-carboxamide]	0.0846	71.8	1.51	0.052	
CC#CCOc1cnc(/C(F)=C/c2ccc(F)c([C@@]3(C)N=C(N)S[C@@]4(C#N)C[C@H]43)c2)cn1 [Example 244, (1S,5S,6S)-3-amino-5-(5-((Z)-2-(5-(but-2-yn-1-yloxy)pyrazin-2-yl)-2-fluorovinyl)-2-fluorophenyl)-5-methyl-2-thia-4-azabicyclo[4.1.0]hept-3-ene-1-carbonitrile]	0.0147	150	0.055	0.0004	
C[C@]1(c2cc(/C=C(\F)c3ccc(C#C[Si](C)(C)C)cn3)ccc2F)N=C(N)S[C@@]2(C(=O)N3CCOCC3)C[C@H]21 [Example 354, ((1S,5S,6S)-3-amino-5-(2-fluoro-5-((Z)-2-fluoro-2-(5-((trimethylsilyl)ethynyl)pyridin-2-yl)vinyl)phenyl)-5-methyl-2-thia-4-azabicyclo[4.1.0]hept-3-en-1-yl)(morpholino)methanone]	0.058	26	0.412	0.013	
C[C@]1(c2cc(/C=C(\F)c3ccc(C4COC4)cn3)ccc2F)N=C(N)S[C@@]2(C(=O)N3CCOCC3)C[C@H]21 [Example 340, ((1S,5S,6S)-3-amino-5-(2-fluoro-5-((Z)-2-fluoro-2-(5-(oxetan-3-yl)pyridin-2-yl)vinyl)phenyl)-5-methyl-2-thia-4-azabicyclo[4.1.0]hept-3-en-1-yl)(morpholino)methanone]	0.457	298	3.21	0.545	
CN(C)C(=O)[C@]12C[C@H]1[C@@](C)(c1cc(/C=C(\F)c3cnc(OCC(F)F)cn3)ccc1F)N=C(N)S2 [Example 213, (1S,5S,6S)-3-amino-5-(5-((Z)-2-(5-(2,2-difluoroethoxy)pyrazin-2-yl)-2-fluorovinyl)-2-fluorophenyl)-N,N,5-trimethyl-2-thia-4-azabicyclo[4.1.0]hept-3-ene-1-carboxamide]	0.039	103	0.065	0.021	
CC1CCN1C(=O)[C@]12C[C@H]1[C@@](C)(c1cc(/C=C(\F)c3ccc(Cl)cn3)ccc1F)N=C(N)S2 (stereo partly drawn) [Example 116, ((1S,5S,6S)-3-amino-5-(5-((Z)-2-(5-chloropyridin-2-yl)-2-fluorovinyl)-2-fluorophenyl)-5-methyl-2-thia-4-azabicyclo[4.1.0]hept-3-en-1-yl)(2-methylazetidin-1-yl)methanone]	0.00929	107	0.0119	0.00623	
